According to patent US20080299542A1, “IDENTIFICATION OF OXIDATIVELY MODIFIED PEPTIDE SEQUENCES IN THE PROTEOME (LOSCALZO)” (priority 2007, published 2008):
Entries after “also recorded” stand apart in the source; their conditions may differ.

Columns and labels:
EGFR = experiment: EGF uptake and EGF-induced EGFR phosphorylation; format: cell-based; conditions: Chang liver cells
Description: (§1) Surface receptor functional assessment: After treatment, cells was incubated with 500 ng/ml Alexa 488-labeled EGF in DMEM containing 1% BSA, 50 μg/ml Alexa-488-labeled transferrin for 10 min, or 10 μg/ml Alexa 488-labeled AcLDL for 30 min in growth medium, and then washed with cold HBSS four times before fixation with formaldehyde at room temperature. Cells were also trypsinzed and ligand uptake quantified by flow cytometry (FACS Calibur). For protein phosphorylation studies, cell lysates were also collected 5 min after stimulation with ligands. Western blotting and indirect immunofluorescence: Cells were lysed in cell lysis buffer (Cell Signaling, Danvers, Mass.). Lysate protein concentration was measured by the Biorad DC protein assay. Equal amounts of proteins were separated by MOPS-SDS-PAGE, then transferred to poly(vinylidene difluoride) membranes (Invitrogen, Carlsbad, Calif.). Membranes were then blocked and the signal detected with a BM Chemiluminescence Blotting kit (Roche Diagnostics, Basel, Switzerland), BM POD precipitating blotting substrate (Roche Diagnostics, Basel, Switzerland), or Supersignal West Femto blotting kit (Pierce, Rockford, Ill.) according to the manufacturer's instructions. […] For indirect immunofluorescence studies, formaldehyde-fixed cells were permeablized with 0.3% Triton for 10 min, blocked with 1% BSA for 30 min, then detected with antibodies. […]

FGFR = experiment: bFGF-induced FGFR phosphorylation; format: cell-based; conditions: in the presence of 0.3 mM DTT; Chang liver cells; FIG. 8d
Description: as §1

IGF-1R = experiment: IGF-1-induced IGF-1R phosphorylation; format: cell-based; conditions: in the presence of 0.3 mM DTT; Chang liver cells; FIG. 8c
Description: as §1

CD71 = experiment: transferrin uptake (mediated by CD71) by HPAECs; format: cell-based, human; conditions: 0.5 mM DTT, 30 min, flow cytometry
Description: (§2) Surface receptor functional assessment: After treatment, cells was incubated with 500 ng/ml Alexa 488-labeled EGF in DMEM containing 1% BSA, 50 μg/ml Alexa-488-labeled transferrin for 10 min, or 10 μg/ml Alexa 488-labeled AcLDL for 30 min in growth medium, and then washed with cold HBSS four times before fixation with formaldehyde at room temperature. Cells were also trypsinzed and ligand uptake quantified by flow cytometry (FACS Calibur). For protein phosphorylation studies, cell lysates were also collected 5 min after stimulation with ligands.

LOX-1 = experiment: acetylated LDL (AcLDL) uptake by HPAECs; format: cell-based, human; conditions: for uptake of acetylated LDL (AcLDL) by HPAECs: mitochondrial inhibitors for 8 hr, FIG. 5
Description: as §2

[1] = system: protein disulfides in BAECs; experiment: in situ fluorescence imaging of cellular protein disulfides (BAECs); format: cell-based, Bovine; conditions: for protein disulfide formation: BAECs, mitochondrial inhibitors, FIG. 1b
Description: (§3) Detection of cellular disulfide-containing proteins: We developed a method for imaging disulfide-containing proteins in situ. Methanol-fixed cells were treated with 200 mM iodoacetamide in 100 mM Tris, pH 8.3, 5 mM EDTA at 37° C. for 1 hour to block thiols. The cells were then washed six times with Tris-buffered saline, pH 8.0, 5 mM EDTA, after which they were incubated with 5 mM EDTA, 1 mM tris(2-carboxyethyl) phosphine, pH 8.3, at room temperature to reduce disulfides and with 1 mM 5-iodoacetamidofluorescein (5-IAF) in 100 mM Tris to label the resulting thiols for 1 hour. Excess dye was removed by washing the cells repeatedly with TBS. Stained cells fixed to slides were then treated with Prolonged Antifade Mounting Medium, and cell nuclei were counterstained with DAPI. Fluorescent images were taken with a Nikon fluorescence TE 2000 microscope. Fluorescence intensity was quantified by subtracting background fluorescence, then integrating the image with the NIH IMAGEJ program and normalizing by cell number as determined by DAPI fluorescence. Four fields magnified×20 were analyzed per experiment, with 100-200 cells counted per sample.

vWF = experiment: multimeric vWF immunoblot / immunofluorescence in HPAECs; format: cell-based, human; conditions: FIG. 1i
Description: (§4) Western blotting and indirect immunofluorescence: Cells were lysed in cell lysis buffer (Cell Signaling, Danvers, Mass.). Lysate protein concentration was measured by the Biorad DC protein assay. Equal amounts of proteins were separated by MOPS-SDS-PAGE, then transferred to poly(vinylidene difluoride) membranes (Invitrogen, Carlsbad, Calif.). Membranes were then blocked and the signal detected with a BM Chemiluminescence Blotting kit (Roche Diagnostics, Basel, Switzerland), BM POD precipitating blotting substrate (Roche Diagnostics, Basel, Switzerland), or Supersignal West Femto blotting kit (Pierce, Rockford, Ill.) according to the manufacturer's instructions. For protein inter-subunit disulfide bond detection, cells were lysed in cell lysis buffer containing 200 mM N-ethyl-maleimide and incubated at 37° C. for 1 hr. LDS sample buffer with or without DTT was added to cell lysates, and proteins were separated by MOPS-SDS-PAGE. For indirect immunofluorescence studies, formaldehyde-fixed cells were permeablized with 0.3% Triton for 10 min, blocked with 1% BSA for 30 min, then detected with antibodies. Primary antibodies used in this study include monoclonal or polyclonal antibodies against CD98, PECAM, endoglin, vWF, PDI, pEGFR, EGFR, FGFR, and CD71 from Santa Cruz; against actin, from Sigma, St. Louis, Mo.; against pFGFR, pIGF1R, and IGF1R from Cell Signaling (Danvers, Mass.); against thioredoxin, MnSOD, catalase, and GAPDH from Abcam, Cambridge, Mass.; and against LOX-1 from Serotec, Raleigh, N.C. All secondary fluorescent-labeled or horseradish peroxidase-conjugated antibodies were obtained from Jackson Immunoresearch, West Grove, Pa.

[2] = system: protein disulfides in Chang liver cells; experiment: in situ fluorescence imaging of cellular protein disulfides (Chang liver cells); format: cell-based; conditions: CCCP for 4 hr, FIG. 1a
Description: as §3

Endoglin = experiment: endoglin disulfide-dependent detection and localization in HPAECs; format: cell-based, human; conditions: non-reducing immunoblot; FIG. 1j
Description: as §4, with “Primary antibodies used in this study include monoclonal or polyclonal antibodies against CD98, PECAM, endoglin, vWF, PDI, pEGFR, EGFR, FGFR, and CD71 from Santa Cruz; against actin, from Sigma, St. Louis, Mo.; against pFGFR, pIGF1R, and IGF1R from Cell Signaling (Danvers, Mass.); against thioredoxin, MnSOD, catalase, and GAPDH from Abcam, Cambridge, Mass.; and against LOX-1 from Serotec, Raleigh, N.C. All secondary fluorescent-labeled or horseradish peroxidase-conjugated antibodies were obtained from Jackson Immunoresearch, West Grove, Pa.” left out

CD98 = CD98 heterodimer blot in Chang liver cells; format: cell-based; conditions: mitochondrial inhibitor treated
Description: as §4, with “Primary antibodies used in this study include monoclonal or polyclonal antibodies against CD98, PECAM, endoglin, vWF, PDI, pEGFR, EGFR, FGFR, and CD71 from Santa Cruz; against actin, from Sigma, St. Louis, Mo.; against pFGFR, pIGF1R, and IGF1R from Cell Signaling (Danvers, Mass.); against thioredoxin, MnSOD, catalase, and GAPDH from Abcam, Cambridge, Mass.; and against LOX-1 from Serotec, Raleigh, N.C. All secondary fluorescent-labeled or horseradish peroxidase-conjugated antibodies were obtained from Jackson Immunoresearch, West Grove, Pa.” left out

GRP78 = experiment: ER stress marker induction, GRP78; format: cell-based; conditions: compared to tunicamycin and thapsigargin treatments
Description: as §4, with “Primary antibodies used in this study include monoclonal or polyclonal antibodies against CD98, PECAM, endoglin, vWF, PDI, pEGFR, EGFR, FGFR, and CD71 from Santa Cruz; against actin, from Sigma, St. Louis, Mo.; against pFGFR, pIGF1R, and IGF1R from Cell Signaling (Danvers, Mass.); against thioredoxin, MnSOD, catalase, and GAPDH from Abcam, Cambridge, Mass.; and against LOX-1 from Serotec, Raleigh, N.C. All secondary fluorescent-labeled or horseradish peroxidase-conjugated antibodies were obtained from Jackson Immunoresearch, West Grove, Pa.” left out

GRP94 = experiment: ER stress marker induction, GRP94; format: cell-based; conditions: compared to tunicamycin and thapsigargin treatments
Description: as §4, with “Primary antibodies used in this study include monoclonal or polyclonal antibodies against CD98, PECAM, endoglin, vWF, PDI, pEGFR, EGFR, FGFR, and CD71 from Santa Cruz; against actin, from Sigma, St. Louis, Mo.; against pFGFR, pIGF1R, and IGF1R from Cell Signaling (Danvers, Mass.); against thioredoxin, MnSOD, catalase, and GAPDH from Abcam, Cambridge, Mass.; and against LOX-1 from Serotec, Raleigh, N.C. All secondary fluorescent-labeled or horseradish peroxidase-conjugated antibodies were obtained from Jackson Immunoresearch, West Grove, Pa.” left out

HPAECs = experiment: mitochondrial membrane potential by JC-1 fluorescence; format: cell-based, human; conditions: after CCCP treatment, FIG. 5b
Description: Mitochondrial membrane potential measurement: Cells were incubated with medium containing 1 ug/ml JC-1 for […], washed with HBSS, and then observed by fluorescence microscopy immediately. Alternatively, fluorescence was measured with a GEMINI XPS microplate reader, with an excitation wavelength of 488 nm and an emission wavelength of 536 nm, as well as an excitation wavelength of 528 nm and an emission wavelength 590 nm. Mitochondrial membrane potential was expressed as the ratio of emission at 590 nm to that at 536 nm.

With `O[C@H](CS)[C@H](O)CS` (racemic) [DTT, dithiothreitol] the “uptake of EGF” value (EGFR; 0.5 mM DTT, 30 min, flow cytometry) was “did not change”, the “EGFR activation by EGF” value (EGFR; in the presence of 0.5 mM DTT) was “fully activated” and the “phosphorylation of FGFR” value (FGFR) was “completely inhibited”. For the same compound, the “phosphorylation of IGF-1Rβ” value (IGF-1R) was “completely inhibited”, the uptake of transferrin (CD71) was “did not change” and the “uptake of AcLDL by HPAECs” value (LOX-1; 0.5 mM DTT, 30 min, flow cytometry, FIG. 8a) was “decreased”.
With `CCCCCC[C@H]1C(=O)O[C@H](C)[C@H](NC(=O)c2cccc(NC=O)c2O)C(=O)O[C@@H](C)[C@@H]1OC(=O)CC(C)C` [ATM, antimycin A] the protein disulfide formation [1] was “least effective”.
`CCCCS(=N)(=O)CCC(N)C(=O)O` (stereo not shown) [BSO, buthionine sulfoximine] was tested, and the “disulfide-linked multimeric vWF” value (vWF) was “increased”.
In the case of `N#CC(C#N)=NNc1cccc(Cl)c1` [CCCP, carbonylcyanide m-chlorophenylhydrazone], the protein disulfide formation [1] is reported as “decreased; also recorded: most effective”, the “effect on protein disulfide formation in MitoCAT overexpressing cells” value ([1]; CCCP for 8 hrs, FIG. 4) is reported as “no longer had any effect” and the “overall protein disulfide signal” value [2] is reported as “decreased”. The “uptake of acetylated LDL (AcLDL) by HPAECs” value (LOX-1) was “decreased”, the “disulfide-linked multimeric vWF” value (vWF) was “dissociation of disulfide-linked multimeric vWF” and the “endoglin detected by P4A4 antibody” value (Endoglin) was “less endoglin was detected”. The “heterodimer CD98” value (CD98) was “remained intact”, the “upregulation of GRP78” value (GRP78) was “did not induce significant upregulation” and the “upregulation of GRP94” value (GRP94) was “did not induce significant upregulation”. The “mitochondrial membrane potential (MMP)” value (HPAECs) was “immediate loss”.
For `C[C@]12CC[C@H](O)CC1=CC[C@@H]1[C@@H]2CC[C@]2(C)C(=O)CC[C@@H]12` [DHEA, dehydroepiandrosterone], the “disulfide-linked multimeric vWF” value (vWF) was “increased”.
In the case of `O=C(CC(=O)C(F)(F)F)c1cccs1` [TTFA, thienoyltrifluoroacetone], the protein disulfide formation [1] is reported as “decreased”, the “uptake of acetylated LDL (AcLDL) by HPAECs” value (LOX-1) is reported as “decreased” and the “endoglin detected by P4A4 antibody” value (Endoglin) is reported as “less endoglin was detected”.
With `O=c1c2ccccc2[se]n1-c1ccccc1` [ebselen] the “inhibition of disulfide formation” value ([1]; FIG. 1c, p<0.01, cell type not stated) was 55%.
`CO/C(=C/C(N)=O)[C@H](C)[C@H](/C=C/c1csc(-c2csc([C@@H](C)/C=C/C=C/C(C)C)n2)n1)OC` [myxothiazol] was tested, and the protein disulfide formation [1] was “decreased”.
With `C=C(C)[C@H]1Cc2c(ccc3c2O[C@@H]2COc4cc(OC)c(OC)cc4[C@@H]2C3=O)O1` [rotenone] the protein disulfide formation [1] was “decreased”.
